Results taken from patent publication US10588952B2, “Conjugate vaccine using trimming function of ERAP1” (SUMITOMO DAINIPPON PHARMA CO., LTD., priority 2013, dated 2020).
Values after ≈ are worked out from the molar mass of the structure shown. One block for each compound: values may come before it. Bridge positions count the residues as written; N and C are the ends. Peptide text beside a SMILES is read from it. I, II: the chains in the order shown.

Key:
[1] = target: T1, ERAP1 (Homo sapiens, UniProt Q9NZ08); assay: Test of trimming of N-terminal amino acid by ERAP1 (Experimental Example 11, Examples 50, 56, 64, 67); assay type: biochemical; settings: Proteinase-3 169-177 peptide obtained by ERAP1 trimming; from HPLC AUC
Protocol: The peptides synthesized in Examples 50, 56, 64 and 67 were evaluated for N-terminal amino acid trimming efficiency using ERAP1. 50 μl of ERAP1 solution (10 μg/ml) in pH 8.0, 20 mM Tris.HCl-100 mM NaCl buffer (Tris.HCl buffer) was added to 142 μl of Tris.HCl buffer. 10 mM peptide solution in DMSO (2.0 μl) and 6.0 μL of DMSO were added to the aforementioned ERAP1 solution, and the mixture was blended well and stood at 30° C. […] The peptide to be obtained by trimming was chemically synthesized separately, and analyzed under similar conditions in the absence of the enzyme. […]
pump: UFLC manufactured by Shimadzu […]
solution: 0.1% TFA H2O(A)-0.1% TFA CH3CN(B) […]
detection wavelength: λ=220 nm gradient: concentration of SOLUTION B was raised from 10% to 50% from 0.0 min to 8.5 min

[2] = tested on: HLA-A0201 transgenic mouse; assay: In vivo CTL induction ability, IFNγ ELISPOT, Cys-extended peptides (Experimental Example 3); settings: intradermal, 2 sites, 50 μg/site with IFA; splenocytes one week later re-stimulated with Cys non-extended or Cys-extended peptide 10 μg/mL
Protocol: The CTL induction ability of each peptide extended by cysteine (Cys) (Cys-extended peptide) shown in Table 23 was evaluated by in vivo CTL induction test using an HLA-A0201 transgenic mouse.
HLA-A0201 transgenic mouse (C57BL/6CrHLA-A2.1DR1) is a mouse which is defective in mouse MHC, and expresses a chimera HLA of human MHC HLA-A0201 and mouse MHC H-2D^b, and HLA-DRB1*0101.
The emulsified peptide was intradermally administered to 2 sites at the base of tail of the mouse at 50 μg/site. One week later, the mouse was euthanized with CO2 gas, the spleen was isolated, and splenocytes were prepared. IFNγ ELISPOT assay kit was used for the measurement of IFNγ production. On the previous day of splenocyte preparation, an ELISPOT plate was treated with an anti-mouse IFNγ antibody, and blocked with RPMI1640 medium containing 10% FBS the next day. The prepared HLA-A0201 transgenic mouse-derived splenocytes were plated at 2.5×10^5 cells/well on the blocked ELISPOT plate. […] These splenocytes were cultivated for 20 hr at 37° C., 5% CO2, whereby peptide re-stimulation in vitro was performed. Thereafter, the supernatant was removed, and the ELISPOT plate was allowed to develop color according to the attached protocol. The number of spots that developed color was measured by KS ELISPOT.

[3] = target: T1, ERAP1; assay: Time-course changes of trimming of N-terminal amino acid by ERAP1 (Experimental Example 2); assay type: biochemical; settings: peptide obtained by trimming (SEQ ID NO: 53, 43 or 19), ERAP1 solution 0.5 mg/ml, room temperature
Protocol: 20 μl of ERAP1 solution (0.5 mg/ml) in Tris.HCl buffer was added to 172 μl of Tris.HCl buffer. 10 mM peptide solution in DMSO (8.0 μl) was added to the aforementioned ERAP1 solution, and the mixture was blended well and stood at room temperature. […]
pump: UFLC manufactured by Shimadzu column: Shim-pack XR-ODS 3.0 mmi.d.×75 mm solution: 0.05% TFA H2O(A)-0.05% TFA CH3CN(B) […]
detection wavelength: λ=220 nm gradient: Concentration of SOLUTION B was raised from 1.0% 70% from 0.0 min to 5.0 min […]
The peptide to be obtained by the trimming of the N-terminal amino acid(s) by ERAP1 is, […]

[4] = physchem
Protocol: To prepare a test solution, about 1 mg of a test product was measured and the isotonic buffer (0.5 mL) was added thereto. The prepared solution was shaken at room temperature for 90 min (shaking conditions: RECIPRO SHAKER SR-1N manufactured by TAITEC, Speed=8), centrifuged (15000 rpm, 5 min, room temperature), and the supernatant after centrifugation was used as a test solution.
About 1 mg of the test product was accurately measured, dissolved in 0.1% TFA water/acetonitrile=1/1, made the total amount 10 mL, and this was used as a standard solution of the test product.
The standard solution of the test product and the test solution are analyzed by HPLC (under the analysis conditions described in Table 34), and the solubility of the test product is calculated from the ratio of peak area compared to the standard solution.
column: Chemcopack Quicksorb (4.6 mmφ×150 mm, 5 μm)
manufactured by Chemco Scientific Co., Ltd.
mobile phase: SOLUTION A; 0.1% TFA water, SOLUTION B;
0.1% TFA acetonitrile solution
column temperature: room temperature
detection wavelength: UV 254 nm, 230 nm (2 wavelength detection)
sample injection volume: 10

[5] = tested on: HLA-A0201 transgenic mouse; assay: In vivo CTL induction ability, IFNγ ELISPOT, formula (11) (Experimental Example 13); settings: 250 μg/site with IFA, 17 hr
Protocol: The compound represented by the formula (11) synthesized in Example 109 was evaluated for the CTL induction ability by an in vivo CTL induction test using an HLA-A0201 transgenic mouse. The compound represented by the formula (11): […]
To evaluate whether CTLs to each of the peptides (SEQ ID NOs: 19 and 88) endogenously presented by cancer cells was induced, the compound represented by the formula (11) was administered to the HLA-A0201 transgenic mouse. That is, it was determined whether IFNγ production was observed by re-stimulation, with the peptide (SEQ ID NO: 19 or 88), of the splenocyte derived from the above-mentioned mouse administered with the compound represented by the formula (11).
Specifically, the compound represented by the formula (11) was dissolved in dimethyl sulfoxide (DMSO) at 80 mg/mL, further diluted with water for injection to 10 mg/mL, and emulsified by mixing with an equal amount of incomplete Freund's adjuvant (IFA). The emulsified compound was intradermally administered to 2 sites at the base of tail of the mouse at 250 μg/site. One week later, the mouse was euthanized with CO2 gas, the spleen was isolated, and splenocytes were prepared. IFNγ ELISPOT assay kit was used for the measurement of IFNγ production. […] The number of spots that developed color was measured by ImmunoSpot Analyzer (manufactured by C.T.L.). […]

[6] = tested on: HLA-A0201 transgenic mouse; assay: In vivo CTL induction ability, IFNγ ELISPOT, formula (5) (Experimental Example 14); settings: 250 μg/site with IFA, 17 hr
Protocol: The compound represented by the formula (5) synthesized in Example 110 was evaluated for the CTL induction ability by an in vivo CTL induction test using HLA-A0201 transgenic mouse. The compound represented by the formula (5): […]
Specifically, the compound represented by the formula (5) was dissolved in dimethyl sulfoxide (DMSO) at 80 mg/mL, further diluted with water for injection to 10 mg/mL, and emulsified by mixing with an equal amount of incomplete Freund's adjuvant (IFA). The emulsified compound was intradermally administered to 2 sites at the base of tail of the mouse at 250 μg/site. One week later, the mouse was euthanized with CO2 gas, the spleen was isolated, and splenocytes were prepared. IFNγ ELISPOT assay kit was used for the measurement of IFNγ production. On the previous day of splenocyte preparation, an ELISPOT plate was treated with an anti-mouse IFNγ antibody, and blocked with RPMI1640 medium containing 10% FBS the next day. The prepared HLA-A0201 transgenic mouse-derived splenocytes were plated at 0.25×10^6 cells/well on the blocked ELISPOT plate. […] After the culture, the supernatant was removed, and the ELISPOT plate was allowed to develop color according to the attached protocol. The number of spots that developed color was measured by ImmunoSpot Analyzer (manufactured by C.T.L.).

[7] = splenocytes pulsed with SEQ ID NO: 19, 10 μg/mL

T1 sequence (Q9NZ08 whole entry): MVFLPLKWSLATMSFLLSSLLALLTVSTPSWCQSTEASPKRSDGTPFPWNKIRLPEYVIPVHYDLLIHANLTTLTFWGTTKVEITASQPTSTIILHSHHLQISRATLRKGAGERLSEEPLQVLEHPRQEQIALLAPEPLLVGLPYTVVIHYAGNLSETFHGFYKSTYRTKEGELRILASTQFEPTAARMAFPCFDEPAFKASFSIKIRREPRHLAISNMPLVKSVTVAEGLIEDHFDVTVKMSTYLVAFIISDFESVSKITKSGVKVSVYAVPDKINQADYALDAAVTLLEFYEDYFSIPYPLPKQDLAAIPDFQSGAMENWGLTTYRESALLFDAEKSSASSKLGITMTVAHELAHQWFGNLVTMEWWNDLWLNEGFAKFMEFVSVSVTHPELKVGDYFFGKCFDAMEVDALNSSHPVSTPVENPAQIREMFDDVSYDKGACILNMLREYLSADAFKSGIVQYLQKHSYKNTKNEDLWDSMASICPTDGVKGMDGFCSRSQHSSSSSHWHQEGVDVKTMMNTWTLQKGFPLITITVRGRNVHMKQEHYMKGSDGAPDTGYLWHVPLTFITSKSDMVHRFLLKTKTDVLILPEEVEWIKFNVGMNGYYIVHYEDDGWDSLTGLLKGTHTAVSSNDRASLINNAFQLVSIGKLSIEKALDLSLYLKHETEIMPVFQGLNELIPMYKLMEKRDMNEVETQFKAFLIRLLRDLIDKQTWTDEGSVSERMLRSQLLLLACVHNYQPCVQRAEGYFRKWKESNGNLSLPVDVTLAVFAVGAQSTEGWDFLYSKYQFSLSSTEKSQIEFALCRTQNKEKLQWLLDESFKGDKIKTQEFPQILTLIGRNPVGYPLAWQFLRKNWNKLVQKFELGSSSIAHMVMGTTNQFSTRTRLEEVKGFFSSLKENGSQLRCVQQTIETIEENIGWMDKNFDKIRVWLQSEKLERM

formation rate of VLQELNVTV (SEQ ID NO: 43) [1]: 1.3%
Compound: H-SCVLQELNVTV-OH [Example 64]

formation rate of VLQELNVTV (SEQ ID NO: 43) [1]: 1.1%
Compound: H-GCVLQELNVTV-OH [Example 56]

formation rate(%) 1 hr later [3]: 83.4%
formation rate(%) 2 hr later [3]: 85.6%
formation rate(%) 4 hr later [3]: 78.8%
formation rate(%) 8 hr later [3]: 83.9%
Compound: H-CVLQELNVTV-OH [Example 21]
in vivo CTL induction ability (IFNγ ELISPOT) [2]: has an in vivo CTL induction ability

formation rate of VLQELNVTV (SEQ ID NO: 43) [1]: 1.8%
Compound: H-ACVLQELNVTV-OH [Example 50]

Compound: CC[C@H](C)[C@H](NC(=O)[C@H](Cc1c[nH]c2ccccc12)NC(=O)[C@H](CCSC)NC(=O)[C@H](CC(C)C)NC(=O)[C@H](CC(C)C)NC(=O)[C@@H](N)CO)C(=O)N[C@H](C(=O)N[C@@H](CCC(N)=O)C(=O)N[C@@H](CSSC[C@H](N)C(=O)NCC(=O)N[C@@H](CC(C)C)C(=O)N[C@@H](Cc1ccc(O)cc1)C(=O)N[C@@H](CC(=O)O)C(=O)NCC(=O)N[C@@H](CCSC)C(=O)N[C@@H](CCC(=O)O)C(=O)N[C@@H](Cc1c[nH]cn1)C(=O)N[C@@H](CC(C)C)C(=O)O)C(=O)O)[C@@H](C)O [Example 109]
solubility at 90 min ([4]; pH 6): 79 µg/mL (≈ 35.4 µM)
solubility at 90 min ([4]; pH 7.4): 700 µg/mL (≈ 314 µM)
induction of CTLs specific to the peptide shown by SEQ ID NO: 19 [5, 7]: can induce CTLs
induction of CTLs specific to the peptide shown by SEQ ID NO: 88 ([5]; splenocytes pulsed with SEQ ID NO: 88, 10 μg/mL): can induce CTLs

Compound: CSCC[C@H](NC(=O)CNC(=O)[C@H](CC(=O)O)NC(=O)[C@H](Cc1ccc(O)cc1)NC(=O)[C@H](CC(C)C)NC(=O)CNC(=O)[C@@H](N)CSSC[C@H](N)C(=O)N[C@H](C(=O)N[C@@H](CC(C)C)C(=O)N[C@@H](CCC(N)=O)C(=O)N[C@@H](CCC(=O)O)C(=O)N[C@@H](CC(C)C)C(=O)N[C@@H](CC(N)=O)C(=O)N[C@H](C(=O)N[C@H](C(=O)N[C@H](C(=O)O)C(C)C)[C@@H](C)O)C(C)C)C(C)C)C(=O)N[C@@H](CCC(=O)O)C(=O)N[C@@H](Cc1c[nH]cn1)C(=O)N[C@@H](CC(C)C)C(=O)O [Example 110] (I: H-CGLYDGMEHL-OH / II: H-CVLQELNVTV-OH; disulfide I:1-II:1)
solubility thermodynamic at 90 min ([4]; pH 6): 511 µg/mL (≈ 227 µM)
solubility thermodynamic at 90 min ([4]; pH 7.4): > 1000 µg/mL
induction of CTLs specific to the peptide shown by SEQ ID NO: 19 [6, 7]: can induce CTLs
induction of CTLs specific to the peptide shown by SEQ ID NO: 43 ([6]; splenocytes pulsed with SEQ ID NO: 43, 10 μg/mL): can induce CTLs

formation rate(%) 1 hr later [3]: 95.1%
formation rate(%) 2 hr later [3]: 106%
formation rate(%) 4 hr later [3]: 100%
formation rate(%) 8 hr later [3]: 101%
Compound: H-CGLYDGMEHL-OH [Example 25]
in vivo CTL induction ability (IFNγ ELISPOT) [2]: has an in vivo CTL induction ability
